In US12377104B1, “Methods for treating a fatty liver disease” (Madrigal Pharmaceuticals, Inc., priority 2024, dated 2025):
Like-named read-outs stand apart in the source and are kept apart here.

Test: Resmetirom exposure parameters by dose, quartile and body weight
Assay type: in vivo, human
Settings: for AUC / Cmax: human, in vivo, oral
Experimental: Various body weight cutoffs for dosing were evaluated.

## CC(C)c1cc(Oc2c(Cl)cc(-n3nc(C#N)c(=O)[nH]c3=O)cc2Cl)n[nH]c1=O [Resmetirom, 2-(3,5-dichloro-4-((5-isopropyl-6-oxo-1,6-dihydropyridazin-3-yl)oxy)phenyl)-3,5-dioxo-2,3,4,5-tetrahydro-1,2,4-triazine-6-carbonitrile]
100 mg, <80 kg
  t1/2α Geometric Mean: 1.26 h
  t1/2α Mean: 1.47 h
  t1/2α Median: 1.44 h
  t1/2β Geometric Mean: 5.36 h
  t1/2β Mean: 6.85 h
  t1/2β Median: 4.41 h
100 mg; Q1: [20-155) ng/mL
  Percentage of Cave,ss in quartile: 19%
100 mg; Q2: [155-219) ng/mL
  Percentage of Cave,ss in quartile: 19%
100 mg; Q3: [219-321) ng/mL
  Percentage of Cave,ss in quartile: 28%
100 mg, Q4: [321-1326] ng/mL
  Percentage of Cave,ss in quartile: 34%
100 mg, ≥110 kg
  Cmin,ss Geometric Mean: 16.2 ng/mL
  Cmin,ss Mean: 43.4 ng/mL
  Cmin,ss Median: 12.8 ng/mL
  t1/2α Geometric Mean: 1.24 h
  t1/2α Mean: 1.38 h
  t1/2α Median: 1.30 h
  t1/2β Geometric Mean: 5.32 h
  t1/2β Mean: 6.33 h
  t1/2β Median: 4.50 h
80 mg, 80-<90 kg, read-out: AUCtau,ss Geometric Mean
  AUC: 6010 ng·h/mL
80 mg, 80-<90 kg, read-out: AUCtau,ss Mean
  AUC: 6660 ng·h/mL
80 mg, 80-<90 kg, read-out: AUCtau,ss Median
  AUC: 5750 ng·h/mL
80 mg, 80-<90 kg, read-out: Cmax,ss Geometric Mean
  Cmax: 816 ng/mL
80 mg, 80-<90 kg, read-out: Cmax,ss Mean
  Cmax: 869 ng/mL
80 mg, 80-<90 kg, read-out: Cmax,ss Median
  Cmax: 870 ng/mL
80 mg, 90-<100 kg, read-out: AUCtau,ss Geometric Mean
  AUC: 5060 ng·h/mL
80 mg, 90-<100 kg, read-out: AUCtau,ss Mean
  AUC: 5790 ng·h/mL
80 mg, 90-<100 kg, read-out: AUCtau,ss Median
  AUC: 5030 ng·h/mL
80 mg, 90-<100 kg, read-out: Cmax,ss Geometric Mean
  Cmax: 745 ng/mL
80 mg, 90-<100 kg, read-out: Cmax,ss Mean
  Cmax: 789 ng/mL
80 mg, 90-<100 kg, read-out: Cmax,ss Median
  Cmax: 795 ng/mL
80 mg, 100-<110 kg, read-out: AUCtau,ss Geometric Mean
  AUC: 4370 ng·h/mL
80 mg, 100-<110 kg, read-out: AUCtau,ss Mean
  AUC: 4740 ng·h/mL
80 mg, 100-<110 kg, read-out: AUCtau,ss Median
  AUC: 4400 ng·h/mL
80 mg, 100-<110 kg, read-out: Cmax,ss Geometric Mean
  Cmax: 624 ng/mL
80 mg, 100-<110 kg, read-out: Cmax,ss Mean
  Cmax: 654 ng/mL
80 mg, 100-<110 kg, read-out: Cmax,ss Median
  Cmax: 644 ng/mL
80 mg, <80 kg, read-out: AUCtau,ss Geometric Mean
  AUC: 8080 ng·h/mL
80 mg, <80 kg, read-out: AUCtau,ss Mean
  AUC: 9230 ng·h/mL
80 mg, <80 kg, read-out: AUCtau,ss Median
  AUC: 8180 ng·h/mL
80 mg, <80 kg, read-out: Cmax,ss Geometric Mean
  Cmax: 1120 ng/mL
80 mg, <80 kg, read-out: Cmax,ss Mean
  Cmax: 1210 ng/mL
80 mg, <80 kg, read-out: Cmax,ss Median
  Cmax: 1140 ng/mL
80 mg, ≥110 kg, read-out: AUCtau,ss Geometric Mean
  AUC: 3470 ng·h/mL
80 mg, ≥110 kg, read-out: AUCtau,ss Mean
  AUC: 3750 ng·h/mL
80 mg, ≥110 kg, read-out: AUCtau,ss Median
  AUC: 3550 ng·h/mL
80 mg, ≥110 kg, read-out: Cmax,ss Geometric Mean
  Cmax: 489 ng/mL
80 mg, ≥110 kg, read-out: Cmax,ss Mean
  Cmax: 520 ng/mL
80 mg, ≥110 kg, read-out: Cmax,ss Median
  Cmax: 504 ng/mL
100 mg, 80-<90 kg, read-out: AUCtau,ss Geometric Mean
  AUC: 8550 ng·h/mL
100 mg, 80-<90 kg, read-out: AUCtau,ss Mean
  AUC: 9660 ng·h/mL
100 mg, 80-<90 kg, read-out: AUCtau,ss Median
  AUC: 7550 ng·h/mL
100 mg, 80-<90 kg, read-out: Cmax,ss Geometric Mean
  Cmax: 1160 ng/mL
100 mg, 80-<90 kg, read-out: Cmax,ss Mean
  Cmax: 1220 ng/mL
100 mg, 80-<90 kg, read-out: Cmax,ss Median
  Cmax: 1200 ng/mL
100 mg, 90-<100 kg, read-out: AUCtau,ss Geometric Mean
  AUC: 7990 ng·h/mL
100 mg, 90-<100 kg, read-out: AUCtau,ss Mean
  AUC: 9010 ng·h/mL
100 mg, 90-<100 kg, read-out: AUCtau,ss Median
  AUC: 7600 ng·h/mL
100 mg, 90-<100 kg, read-out: Cmax,ss Geometric Mean
  Cmax: 954 ng/mL
100 mg, 90-<100 kg, read-out: Cmax,ss Mean
  Cmax: 1010 ng/mL
100 mg, 90-<100 kg, read-out: Cmax,ss Median
  Cmax: 1060 ng/mL
100 mg, 100-<110 kg, read-out: AUCtau,ss Geometric Mean
  AUC: 6690 ng·h/mL
100 mg, 100-<110 kg, read-out: AUCtau,ss Mean
  AUC: 7430 ng·h/mL
100 mg, 100-<110 kg, read-out: AUCtau,ss Median
  AUC: 6250 ng·h/mL
100 mg, 100-<110 kg, read-out: Cmax,ss Geometric Mean
  Cmax: 905 ng/mL
100 mg, 100-<110 kg, read-out: Cmax,ss Mean
  Cmax: 958 ng/mL
100 mg, 100-<110 kg, read-out: Cmax,ss Median
  Cmax: 966 ng/mL
100 mg, <80 kg, read-out: AUCtau,ss Geometric Mean
  AUC: 8680 ng·h/mL
100 mg, <80 kg, read-out: AUCtau,ss Mean
  AUC: 10800 ng·h/mL
100 mg, <80 kg, read-out: AUCtau,ss Median
  AUC: 9610 ng·h/mL
100 mg, <80 kg, read-out: Cmax,ss Geometric Mean
  Cmax: 1120 ng/mL
100 mg, <80 kg, read-out: Cmax,ss Mean
  Cmax: 1310 ng/mL
100 mg, <80 kg, read-out: Cmax,ss Median
  Cmax: 1370 ng/mL
100 mg, ≥110 kg, read-out: AUCtau,ss Geometric Mean
  AUC: 4330 ng·h/mL
100 mg, ≥110 kg, read-out: AUCtau,ss Mean
  AUC: 4940 ng·h/mL
100 mg, ≥110 kg, read-out: AUCtau,ss Median
  AUC: 3900 ng·h/mL
100 mg, ≥110 kg, read-out: Cmax,ss Geometric Mean
  Cmax: 575 ng/mL
100 mg, ≥110 kg, read-out: Cmax,ss Mean
  Cmax: 642 ng/mL
100 mg, ≥110 kg, read-out: Cmax,ss Median
  Cmax: 647 ng/mL
